Holding throughout (type): cell-based
Assay [1] relates to OCUM-1 stomach/gastric cancer cells. Description: CellTiter-Glo proliferation assay, OCUM1. The method, then: (§1) OCUM-1: Stomach/gastric cancer—JCRB No. JCRB0192 cultured in DMEM+0.5 mM sodium pyruvate+10% FBS EBC-1: Lung cancer—JCRB No. JCRB0820 cultured in DMEM+10% FBS SKCO-1: Colon cancer—ATCC No. HTB-39 cultured in Eagle's Minimum Essential Medium+10% FBS The Her2 antibody drug conjugates were tested against nine endogenous cancer cell lines. NCI-N87: Stomach/gastric cancer—ATCC No. CRL-5822 cultured in RPMI-1640+10% FBS The PCAD antibody drug conjugates were tested against nine endogenous cancer cell lines. BICR-22: Tongue cancer—ECACC No. 04072106 cultured in DMEM+2 mM Glutamine+2% FBS+0.4 micrograms/ml Hydrocortisone
(§2) The ability of the antibody drug conjugates to inhibit cell proliferation and survival was assessed using the Promega CellTiter-Glo® proliferation assay.
(§3) Cell lines were cultured in media that is optimal for their growth at 5% CO2, 37° C. in a tissue culture incubator. […] On the day of seeding, cell viability and cell density were determined using a cell counter (Vi-Cell XR Cell Viability Analyzer, Beckman Coulter). […] Plates were incubated at 5% CO2, 37° C. for 5 days in a tissue culture incubator, after which cell viability was assessed through the addition of 25 μL of CellTiter Glo® (Promega, cat #G7573), a reagent which lyses cells and measures total adenosine triphosphate (ATP) content. […]
A general note: In ATP-based viability assays light output follows the ATP content of the culture.

Assay [2] concerns SKCO-1 colon cancer cells. Description: CellTiter-Glo proliferation assay, SKCO1. The method, then: as §1, §2, §3
Assay [3] concerns BICR-22 tongue cancer cells. The assay can be described thus: CellTiter-Glo proliferation assay, BICR22. The method, then: as §1, §2, §3
The test system of assay [4] is EBC-1 lung cancer cells. The assay can be described thus: CellTiter-Glo proliferation assay, EBC1. On the procedure: as §1, §2, §3
Assay [5] relates to NCI-N87 stomach/gastric cancer cells. The assay can be described thus: CellTiter-Glo proliferation assay, NCIN87. The method, then:
as §1, §2, §3

One may read the IC50 as the concentration needed to halve the response being measured. Lower therefore signals greater potency in that assay. In the case of `CCC(C)[C@@H]([C@@H](CC(=O)N1CCC[C@H]1[C@H](OC)[C@@H](C)C(=O)N[C@@H](Cc1ccccc1)c1nccs1)OC)N(C)C(=O)[C@@H](NC(=O)[C@H]1N[C@@H]2CC[C@H]1C2)C(C)C` (stereo partly shown) [Auristatin#1], the IC50 was found to be 1.38 nM in assay [1] (OCUM1, 120 h); 1.13 nM in assay [2] (Homo sapiens, SK-CO-1, 120 h); 0.271 nM in assay [3] (120 h); 0.23 nM in assay [4] (Homo sapiens, EBC-1, 120 h); 1.2 nM in assay [5] (Homo sapiens, NCI-N87, 120 h). The “Amax (Span)” value in assay [1] (Unconjugated drug cytotoxicity, OCUM1, 5 days) was found to be 72.3; in assay [2] (Unconjugated drug cytotoxicity, SKCO1, 5 days), 81.6; in assay [3] (Unconjugated drug cytotoxicity, BICR22, 5 days), 89.7; in assay [4] (Unconjugated drug cytotoxicity, EBC1, 5 days), 77.0; in assay [5] (Unconjugated drug cytotoxicity, NCIN87, 5 days), 75.7.

For the origin of these results see US20260061065A1, “ANTIBODY DRUG CONJUGATES” (priority 2022, published 2026).
